{"source": "patent US20210038515A1", "about": "(Azurity Pharmaceuticals, Inc., priority 2014, published 2021)", "key": {"in vitro": {"experiment": "in vitro", "conditions": "human, Caco-2", "experimental": "Caco-2 cells are used as an in vitro model of the human intestinal epithelium and permit assessment of the intestinal permeability of potential drugs. Vancomycin is added to either the apical or basolateral side of a confluent monolayer of Caco-2 cells and permeability is measured by monitoring the appearance of the Vancomycin on the opposite side of the monolayer using LC-MS/MS. When performing a bi-directional assay, the efflux ratio (ER) is calculated from the ratio of B->A and A->B permeabilities.\nThe permeability measure of vancomycin in the apical to basolateral (A->B) and basolateral to apical (B->A) direction across Caco-2 cells, and to determine the efflux ratio."}, "Clostridium difficile": {"tested_on": "Clostridium difficile", "experiment": "Agar dilution MIC of vancomycin preparations (Sigma, Cutis), diluent, Na benzoate and Na citrate", "assay_type": "cell-based", "conditions": "tested separately at concentrations exceeding those present in the diluent", "experimental": "Introduction: The purpose of the study was to compare the MICs obtained with the formulation of vancomycin HCL of the invention (Cutis) to formulations obtained using a vancomycin HCL reference standard powder obtained from Sigma. The Example also involves the analysis of a solution or diluent to determine if it has antimicrobial activity at the concentrations present in the agar dilution test.\nThe C. difficile were tested by agar dilution according to the procedures in the Clinical and Laboratory Standards Institute. 2012. Methods for antimicrobial susceptibility testing of anaerobic bacteria; approved standard-seventh edition.\nOther anaerobic organisms included clinical isolates of Bifidobacterium adolescentis and Bacteroides fragilis. Clostridium difficile ATCC 700057 was included as a quality control strain.\nThe C. difficile isolates were recovered from patients with CDI during the past two years and stored at −70° C. in 20% skim milk. Ribotyping was performed by another reference laboratory. The strains were taken from the freezer and subcultured at least twice to ensure purity and good growth.\nOn the day of testing, they were suspended in Brucella broth to the turbidity of the 0.5 McFarland standard for testing.\nStock solution of the Sigma vancomycin was prepared in water and stored at −70° C. On the day of testing, it was thawed and further diluted in water to obtain the desired range of 16-0.125 μg/ml. The Cutis vancomycin (25 mg/ml) was reconstituted on the day of testing and further diluted for a final range of 16-0.125 μg/ml in the test. The antimicrobials were added to molten Brucella agar supplemented with vitamin K and hemin to prepare the plates. Drug-free growth controls were included for testing before and after each set of plates. All testing was done in triplicate.\nThe organisms were pipetted into the wells of the Steers replicator head and applied to the plates with the multi-pronged replicator. The final concentration of organisms was ˜10^5 CFU/spot.\nThe plates were incubated in the anaerobic chamber incubator for 44 h and examined for growth.\nThe Cutis diluent comprises: water, about 0.12% (w/v) citric acid (anhydrous), 0.2% (w/v) sucralose, about 0.05% (w/v) artificial grape flavor, 0.1% (w/v) sodium benzoate, about 0.0002% (w/v) D&C Yellow No. 10 and about 0.000038% (w/v) FD&C Red No. 40."}, "C. difficile": {"tested_on": "C. difficile", "experiment": "MIC by reference agar dilution method (CLSI M11-A8) of stored vancomycin preparations", "assay_type": "cell-based, Clostridium difficile", "conditions": "for MIC, average of triplicate: Fresh"}, "[1]": {"tested_on": "Staphylococcus aureus ATCC 29213", "experiment": "MIC by reference agar dilution method (CLSI M11-A8), quality control strain", "assay_type": "cell-based", "conditions": "Fresh", "experimental": "The vancomycin hydrochloride solution of the invention and the IV solution were reconstituted to a concentration of 25 mg/ml. […] The MICs were determined by the reference agar dilution method (CLSI M11-A8). All serial two-fold dilutions were prepared on the same day and added to molten agar to prepare plates.\nThe in vitro activity was tested for three different preparations of vancomycin freshly reconstituted, and stored at ambient and at refrigerated temperatures. The C. difficile strains were selected to represent the most frequently encountered ribotypes.\nPlates were prepared by adding 1 ml of lysed sheep blood and two mls of the twofold dilutions of the vancomycin preparations to molten agar. Plates were mixed, poured and allowed to harden. Suspensions of the organisms were applied to the plates using a Steers replicating device that delivered approximately 10^5 cfu/spot. Each preparation was tested in triplicate. Plates were incubated at 37° C. for 48 h.\nPlates were examined for growth."}, "[2]": {"conditions": "orally-administered; cited from earlier work"}}}
{"compound": "COCCc1ccc(OCC(O)CNC(C)C)cc1", "note": "(stereo not shown) [Metoprolol]", "values": [{"measurement": "Papp A→B", "setting": "in vitro", "result": 11.6, "unit": "×10⁻⁶ cm/s"}, {"measurement": "Papp B→A", "setting": "in vitro", "result": 30, "unit": "×10⁻⁶ cm/s"}]}
{"compound": "O=C([O-])c1ccccc1.[Na+]", "note": "[Na benzoate]", "values": [{"measurement": "growth inhibition", "setting": "Clostridium difficile", "result": "no inhibition"}]}
{"compound": "O=C([O-])CC(O)(CC(=O)[O-])C(=O)[O-].[Na+].[Na+].[Na+]", "note": "[Na citrate]", "values": [{"measurement": "growth inhibition", "setting": "Clostridium difficile", "result": "no inhibition"}]}
{"compound": "CNC(=C[N+](=O)[O-])NCCSCc1ccc(CN(C)C)o1", "note": "[Ranitidine]", "values": [{"measurement": "Papp A→B", "setting": "in vitro", "result": 0.3, "unit": "×10⁻⁶ cm/s"}, {"measurement": "Papp B→A", "setting": "in vitro", "result": 1.5, "unit": "×10⁻⁶ cm/s"}]}
{"compound": "CN[C@H](CC(C)C)C(=O)N[C@H]1C(=O)N[C@@H](CC(N)=O)C(=O)N[C@H]2C(=O)N[C@H]3C(=O)N[C@H](C(=O)N[C@H](C(=O)O)c4cc(O)cc(O)c4-c4cc3ccc4O)[C@H](O)c3ccc(c(Cl)c3)Oc3cc2cc(c3O[C@@H]2O[C@H](CO)[C@@H](O)[C@H](O)[C@H]2O[C@H]2C[C@](C)(N)[C@H](O)[C@H](C)O2)Oc2ccc(cc2Cl)[C@H]1O.Cl", "note": "[Reference standard]", "values": [{"measurement": "MIC, average of triplicate", "setting": "C. difficile; ATCC 7000057 QC (C. difficile)", "result": 1, "unit": "µg/mL"}, {"measurement": "MIC, average of triplicate", "setting": "C. difficile; RMA 24504, ribotype 027", "result": 1, "unit": "µg/mL"}, {"measurement": "MIC, average of triplicate", "setting": "C. difficile; RMA 24510, ribotype 027", "result": 1, "unit": "µg/mL"}, {"measurement": "MIC, average of triplicate", "setting": "C. difficile; RMA 24519, ribotype 027", "result": 1, "unit": "µg/mL"}, {"measurement": "MIC, average of triplicate", "setting": "C. difficile; RMA 24527, ribotype 014", "result": 1, "unit": "µg/mL"}, {"measurement": "MIC, average of triplicate", "setting": "C. difficile; RMA 24529, ribotype 014", "result": 1, "unit": "µg/mL"}, {"measurement": "MIC, average of triplicate", "setting": "C. difficile; RMA 24541, ribotype 020", "result": 1, "unit": "µg/mL"}, {"measurement": "MIC, average of triplicate", "setting": "C. difficile; RMA 24543, ribotype 020", "result": 1, "unit": "µg/mL"}, {"measurement": "MIC, average of triplicate", "setting": "C. difficile; RMA 24547, ribotype 014", "result": 1, "unit": "µg/mL"}, {"measurement": "MIC, average of triplicate", "setting": "C. difficile; RMA 24561, ribotype 078", "result": 1, "unit": "µg/mL"}, {"measurement": "MIC, average of triplicate", "setting": "C. difficile; RMA 24567, ribotype 020", "result": 1, "unit": "µg/mL"}, {"measurement": "MIC, average of triplicate", "setting": "C. difficile; RMA 24575, ribotype 078", "result": 1, "unit": "µg/mL"}, {"measurement": "MIC, average of triplicate", "setting": "C. difficile; RMA 24594, ribotype 106", "result": 4, "unit": "µg/mL"}, {"measurement": "MIC, average of triplicate", "setting": "C. difficile; RMA 24601, ribotype 106", "result": 2, "unit": "µg/mL"}, {"measurement": "MIC, average of triplicate", "setting": "C. difficile; RMA 24605, ribotype 002", "result": 1, "unit": "µg/mL"}, {"measurement": "MIC, average of triplicate", "setting": "C. difficile; RMA 24607, ribotype 106", "result": 1, "unit": "µg/mL"}, {"measurement": "MIC, average of triplicate", "setting": "C. difficile; RMA 24608, ribotype 002", "result": 1, "unit": "µg/mL"}, {"measurement": "MIC, average of triplicate", "setting": "C. difficile; RMA 24615, ribotype 005", "result": 2, "unit": "µg/mL"}, {"measurement": "MIC, average of triplicate", "setting": "C. difficile; RMA 24628, ribotype 012", "result": 1, "unit": "µg/mL"}, {"measurement": "MIC, average of triplicate", "setting": "C. difficile; RMA 24641, ribotype 001/072", "result": 1, "unit": "µg/mL"}, {"measurement": "MIC, average of triplicate", "setting": "C. difficile; RMA 24643, ribotype 001/072", "result": 1, "unit": "µg/mL"}, {"measurement": "MIC, average of triplicate", "setting": "C. difficile; RMA 24646, ribotype 001/072", "result": 1, "unit": "µg/mL"}, {"measurement": "MIC, average of triplicate", "setting": "C. difficile; RMA 24655, ribotype 005", "result": 2, "unit": "µg/mL"}, {"measurement": "MIC, average of triplicate", "setting": "C. difficile; RMA 24678, ribotype 012", "result": 4, "unit": "µg/mL"}, {"measurement": "MIC, average of triplicate", "setting": "C. difficile; RMA 24683, ribotype 027", "result": 2, "unit": "µg/mL"}, {"measurement": "MIC, average of triplicate", "setting": "C. difficile; RMA 24690, ribotype 027", "result": 4, "unit": "µg/mL"}, {"measurement": "Average MIC (geometric mean, all 25 strains)", "setting": "C. difficile; reference standard powder stock solution stored at −70 C", "result": 1.5, "unit": "µg/mL"}, {"measurement": "MIC, average of triplicate", "setting": "[1]; ATCC 29213 SA QC (S. aureus)", "result": 2, "unit": "µg/mL"}, {"measurement": "vancomycin MIC from triplicate test, best of 3 values", "setting": "[1]; ATCC 29213 SA QC", "result": 2, "unit": "µg/mL"}]}
{"compound": "CN[C@H](CC(C)C)C(=O)N[C@H]1C(=O)N[C@@H](CC(N)=O)C(=O)N[C@H]2C(=O)N[C@H]3C(=O)N[C@H](C(=O)N[C@H](C(=O)O)c4cc(O)cc(O)c4-c4cc3ccc4O)[C@H](O)c3ccc(c(Cl)c3)Oc3cc2cc(c3O[C@@H]2O[C@H](CO)[C@@H](O)[C@H](O)[C@H]2O[C@H]2C[C@](C)(N)[C@H](O)[C@H](C)O2)Oc2ccc(cc2Cl)[C@H]1O", "note": "[vancomycin]", "values": [{"measurement": "absorption", "setting": "[2]", "result": "cannot be absorbed"}, {"measurement": "concentrations in the colon", "setting": "[2]", "result": "500 to 1000", "unit": "µg/mL"}]}
